Assay results from US10821164B2, “Peptides for inducing Chagas disease responses” (SAINT LOUIS UNIVERSITY, priority 2015, dated 2020).

Experiments:
CD8^+ T cells = assay: IFN-γ ELISPOT after vaccination of HLA-A2 transgenic mice with peptide-pulsed mature dendritic cells; format: cell-based, HLA-A2 HHDII transgenic mice; details: splenic CD8+ T cells four weeks after second peptide-pool pulsed mDC vaccination; stimulated overnight with spleen cells pulsed with individual peptide 5 μg/ml; FIG. 2A
Source text: FIGS. 2A-C—Immunogenicity of predicted HLA-A2 restricted T. cruzi epitopes. HLA-A2 transgenic mice were vaccinated twice, two weeks apart with mature dendritic cells pulsed with functional TS (F-TS; FIG. 2A), Non-functional TS (NF-TS; FIG. 2B), or whole genome derived Non-TS peptide pools (FIG. 2C). One month later, CD8^+ T cells were isolated from control DC or peptide-pool pulsed DC vaccinated mice and stimulated overnight with APCs pulsed with individual F-TS, NF-TS, or Non-TS peptides in IFN-γ ELISPOT assays. Shown are mean±SE from representative experiments expressed as IFN-γ spot forming cells (SFC) per million CD8^+ T cells above DMSO control. Asterisks denote immunogenic peptides defined as responses greater than the mean+2 SE of all control CD8^+ T cell responses.
All animal studies were conducted in AAALAC accredited facilities and were approved by the Saint Louis University Institutional Animal Care and Use Committee. HLA-A2 HHDII transgenic mice were provided by Ted Hansen (Washington University) with permission from Marion Berard at the Institut Pasteur and were bred and housed under pathogen-free conditions throughout the inventors' studies (Pascolo et al., 1997). […]

T. cruzi = details: children aged six to 12 years with chronic disease; cited from earlier work

Molecule | IFN-γ spot forming cells (SFC) per million CD8^+ T cells above DMSO control (CD8^+ T cells) | cure rate (T. cruzi)
EVYSLVFARL [F-TS-2] | 5,000 IFN-γ SFC/million CD8^+ T cells | 
O=C(Cn1ccnc1[N+](=O)[O-])NCc1ccccc1 [benznidazole] |  | about 60%
